Molecular target: T1, Cytochrome P450 (CYP) 1A2 (Homo sapiens, UniProt P05177)
T1 sequence (P05177 2-516): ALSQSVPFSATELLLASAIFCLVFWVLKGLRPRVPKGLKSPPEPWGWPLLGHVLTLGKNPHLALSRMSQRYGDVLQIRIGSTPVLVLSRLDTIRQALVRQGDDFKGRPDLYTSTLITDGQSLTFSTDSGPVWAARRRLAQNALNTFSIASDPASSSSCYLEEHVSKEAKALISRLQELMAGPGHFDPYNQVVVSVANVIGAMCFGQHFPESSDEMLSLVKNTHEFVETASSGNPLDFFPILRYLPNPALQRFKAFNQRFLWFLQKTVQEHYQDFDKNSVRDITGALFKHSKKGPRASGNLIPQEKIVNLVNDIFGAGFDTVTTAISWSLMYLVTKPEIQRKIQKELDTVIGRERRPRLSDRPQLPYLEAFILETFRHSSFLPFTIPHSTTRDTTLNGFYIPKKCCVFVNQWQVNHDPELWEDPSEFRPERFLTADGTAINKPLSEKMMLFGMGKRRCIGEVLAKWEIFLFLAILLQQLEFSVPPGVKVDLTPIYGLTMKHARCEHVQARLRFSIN
Test: 7-ethoxyresorufin O-deethylase fluorescence inhibition assay
Type: biochemical

Row | IC50 [µM] | Compound
1 | ~0.2 | Cc1c(-c2cnccn2)ssc1=S [OLT, 4-methyl-5-pyrazinyl-3H-1,2-dithiole-3-thione]
2 | ~12.8 | CC(C)(C)c1cc(=S)ss1 [TBD, 5-tert-butyl-3H-1,2-dithiole-3-thione]

— paper PMC2650797 (Carcinogenesis, 2009)
